Measurements published in patent publication US20140315972A1, “RS)-2-(2-oxo-4-phenylpyrrolidin-1-yl)acetamide compound having modulatory activity with a commensurate effect, pharmaceutical substance (variants) and its application, composition (variants) thereof” (priority 2011, published 2014).
Marks after values point to notes of the source that are not given here.

Legend:
Assay type in all cases: in vivo
mice [1] = test: Hypobaric hypoxia in pressure chamber, adult mice; conditions: for Duration of life: adult mice, hypobaric hypoxia
rats = test: 14-day immobilization in antiorthostatic position (Ds), thymus, spleen, adrenal mass ratios Kt; conditions: Ds-conditions; for S/A: spleen/adrenals ratio (mg/100 g baseline body weight); for S/T: spleen/thymus ratio (mg/100 g baseline body weight); for T/A: thymus/adrenals ratio (mg/100 g baseline body weight)
mice [2] = test: Electric extremities pain stimulation, thresholds TA, TFC, TF
mice [3] = test: Benzedrine-induced stimulation of orientation-locomotor activity; conditions: mice; Benzedrine 3.0 mg/kg alone
Description: In regard to influencing the effects of Benzedrine, Phenotropil also can provide, depending on the dose, the diametrically opposite activity when in combination with psychostimulants. This fact must be taken into account in combined use of various pharmacological agents.

mice [4] = test: Duration of swimming in cold (2° C.) and normal (25° C.) water; conditions: single dose 2.5 mg/kg i.p.
Protocol: Stimulatory effect on the duration of swimming in cold (2° C.) and normal (25° C.) water (Table 8.1-8.1.1) of Phenotropil (25 and 50 mg/kg) compared with the control (distilled water) and Benzedrine (2.5 mg/kg) was studied in white outbred male mice (18-26 g) compared to control (distilled water) when intraperitoneally administered, 60 min after the administration and with a course administration for 4 weeks administration on day 28 (Table 8.1.2). […] At normal temperature of water, the effect of Benzedrine was not modified and stayed at 34%.
The advantage of psychomodulator Phenotropil is obvious both with the single dose and the course use, by the effect on physical performance and stability of the body, both in normal and more adverse temperature conditions.

mice [5] = test: Apomorphine verticalization (positive symptoms of schizophrenia); conditions: mice, apomorphine 2 mg/kg s.c.
Protocol: (§1) Studies have been conducted on white outbred male mice (18-24 g), in comparison with the olanzapine (Zyprexa) with intraperitoneal injection.
In the model of positive symptoms of schizophrenia associated with hyperactivation of the dopamine systems, which allows to identify the ability of substances to block the dopaminergic transmission in the mesolimbic system of the brain, Phenotropil (100, 200, and 300 mg/kg) reduced the apomorphine-induced (2 mg/kg subcutaneously) verticalization intensity scores (Table 4) by 45%, by 2.0 and 2.6 times, respectively.

mice [6] = test: Tremor caused by arecoline
Description: as §1

mice [7] = test: Open field test
Protocol: Study of the effect of Phenotropil (100, 200, 300 mg/kg) on motor activity and exploratory behavior by the open field test on mice (16-24 g) in comparison with olanzapine (1 mg/kg) is shown in Tables 5-5.4. Olanzapine at higher doses has sedative activity, so for comparison with Phenotropil, the drug was used only at a dose of 1 mg/kg. The drugs and distilled water to control groups were injected intraperitoneally 40 minutes prior to the study. […] This indicates the ability of the drug to reversibility, unlike olanzapine.

mice [8] = test: Cross maze exploratory behavior, HEF and LEF mice; conditions: i.p. once a day 5 days, Compounds 1 and 4 100 mg/kg, Piracetam 200 mg/kg
rabbits = test: Transcallosal stimulation induced potential (TSIP); conditions: Piracetam 300-500, Pyritinol 50-150, Phenotropil 25-300 mg/kg

O=C1CC(c2ccccc2)CN1 (racemic) [Fepiron, 4(R,S)-feniilpirrolidin-2-one]
increase of survival time vs control (mice [1]; 100 mg/kg): 47.8% | effect on survival of the animals (mice [1]; 25-50 mg/kg): did not affect the survival of the animals | Duration of life (mice [1]; 25 mg/kg): 2.3 ± 0.2^ min | Duration of life (mice [1]; 50 mg/kg): 2.7 ± 0.2^ min | Duration of life (mice [1]; 100 mg/kg): 3.4 ± 0.2 min | S/A (rats; 50 mg/kg): 11.3 ± 0.3 | S/T (rats; 50 mg/kg): 5.4 ± 0.3 | T/A (rats; 50 mg/kg): 2.1 ± 0.2 | S/A (rats; 100 mg/kg): 9.0 ± 0.3 | S/T (rats; 100 mg/kg): 5.4 ± 0.3 | T/A (rats; 100 mg/kg): 1.6 ± 0.3 | S/A (rats; 200 mg/kg): 9.4 ± 0.4 | S/T (rats; 200 mg/kg): 9.5 ± 0.9 | T/A (rats; 200 mg/kg): 1.0 ± 0.1 | TA (threshold of attention) vs control (mice [2]; 25 mg/kg i.p.): 0.0% | TFC (threshold of first cheep) vs control (mice [2]; 25 mg/kg i.p.): −5.7% | TA (threshold of attention) vs control (mice [2]; 50 mg/kg i.p.): +5.0% | TFC (threshold of first cheep) vs control (mice [2]; 50 mg/kg i.p.): +11.4 * % | TA (threshold of attention) vs control (mice [2]; 100 mg/kg i.p.): +12.5 * % | TFC (threshold of first cheep) vs control (mice [2]; 100 mg/kg i.p.): +2.8%

CC(N)Cc1ccccc1 (stereo not drawn) [Benzedrine, reference compound]
Number of pulses for 3 min. (mice [3]): 84.3 ± 7.9 | Number of stand-ups for 3 min. (mice [3]): 14.2 ± 1.8 | Duration of swimming (mice [4]): 160.70 ± 11.75 min | Duration of swimming (mice [4]; water 2° C.): 1.60 ± 0.2 min

NC(=O)CN1CC(c2ccccc2)CC1=O (stereo not drawn) [Fepiron (+)]
S/A (rats; 200 mg/kg): 11.3 ± 0.4 | S/T (rats; 200 mg/kg): 5.4 ± 0.1 | T/A (rats; 200 mg/kg): 2.1 ± 0.6

NC(=O)CN1CC(c2ccccc2)CC1=O (stereo not drawn) [Fepiron (−)]
S/A (rats; 200 mg/kg): 9.0 ± 0.5 | S/T (rats; 200 mg/kg): 4.9 ± 0.7 | T/A (rats; 200 mg/kg): 1.9 ± 0.3

Cc1cc2c(s1)Nc1ccccc1N=C2N1CCN(C)CC1 [Olanzapine, reference compound]
Intensity of verticalization in points (mice [5]; 1.0 mg/kg i.p.): 36 ± 8.7 points | Intensity of verticalization in points (mice [5]; 10 mg/kg i.p.): 16.4 ± 8.4*^ points | reduction of duration of tremor (mice [6]; 1 mg/kg): 57% | Duration of tremor (mice [6]; mice, arecoline 25 mg/kg, 1.0 mg/kg): 178 ± 28 s | effect on number of explorations compared to the control (mice [7]; 1 mg/kg): no effect | increase of number of washes during 1 and 2 minutes (mice [7]; 1 mg/kg): 150% | increase of number of washes in total (mice [7]; 1 mg/kg): 200% | reduction of number of rearings (mice [7]; 1 mg/kg): 47% | reduction of number of visits to the center, total index (mice [7]; 1 mg/kg): 39% | reduction of overall run distance (mice [7]; 1 mg/kg): 36% | Distance covered during 1st min (horizontal motor activity) (mice [7]; mice, 1 mg/kg i.p.): 8.3 ± 1.6 | Distance during 2nd min (horizontal motor activity) (mice [7]; mice, 1 mg/kg i.p.): 8.8 ± 0.8 | Distance during 3rd min (horizontal motor activity) (mice [7]; mice, 1 mg/kg i.p.): 10.2 ± 0.9 | Explorations during 2nd min (mice [7]; mice, 1 mg/kg i.p.): 0.5 ± 0.2^ | Explorations during 3rd min (mice [7]; mice, 1 mg/kg i.p.): 1.0 ± 0.3 | Number of explorations (holes) during 1st min (mice [7]; mice, 1 mg/kg i.p.): 0.7 ± 0.2^ | Number of washings during 1st min (mice [7]; mice, 1 mg/kg i.p.): 0.5 ± 0.2 | Total distance at 3 min (horizontal motor activity) (mice [7]; mice, 1 mg/kg i.p.): 27.3 ± 2.6 | Total number of explorations at 3 min (mice [7]; mice, 1 mg/kg i.p.): 2.2 ± 0.4^ | Total number of visits to the center at 3 min (mice [7]; mice, 1 mg/kg i.p.): 0.7 ± 0.3 | Total number of washings at 3 min (mice [7]; mice, 1 mg/kg i.p.): 1.2 ± 0.4 | Visits to the center during 1st min (mice [7]; mice, 1 mg/kg i.p.): 0 ± 0 | Visits to the center during 2nd min (mice [7]; mice, 1 mg/kg i.p.): 0.5 ± 0.2 | Visits to the center during 3rd min (mice [7]; mice, 1 mg/kg i.p.): 0.2 ± 0.2 | Washings during 2nd min (mice [7]; mice, 1 mg/kg i.p.): 0.5 ± 0.2 | Washings during 3rd min (mice [7]; mice, 1 mg/kg i.p.): 0.2 ± 0.2 | vertical motor activity, 1st min (Distance covered) (mice [7]; mice, 1 mg/kg i.p.): 0.8 ± 0.3 | vertical motor activity, 2nd min (mice [7]; mice, 1 mg/kg i.p.): 0.3 ± 0.2 | vertical motor activity, 3rd min (mice [7]; mice, 1 mg/kg i.p.): 0.5 ± 0.2 | vertical motor activity, total at 3 min (mice [7]; mice, 1 mg/kg i.p.): 1.7 ± 0.4

NCC(CC(=O)O)c1ccccc1 (stereo not drawn) [Phenibut (+)]
S/A (rats; 50 mg/kg): 13.0 ± 0.1 | S/T (rats; 50 mg/kg): 4.8 ± 0.1 | T/A (rats; 50 mg/kg): 2.7 ± 0.1

NCC(CC(=O)O)c1ccccc1 (stereo not drawn) [Phenibut (−)]
S/A (rats; 50 mg/kg): 12.0 ± 0.3 | S/T (rats; 50 mg/kg): 4.8 ± 0.3 | T/A (rats; 50 mg/kg): 2.5 ± 0.3

NC(=O)CN1CCCC1=O [Piracetam]
Kt (trigger transmission coefficient) (mice [8]; HEF mice): 3.1 ± 0.45 | Number of compartment explorations (mice [8]; HEF mice): 4.2 ± 0.7 // | Number of surveillances (mice [8]; HEF mice): 1.9 ± 0.2 | Kt (trigger transmission coefficient) (mice [8]; LEF mice): 2.4 ± 0.5 | Number of compartment explorations (mice [8]; LEF mice): 5.3 ± 0.8 // | Number of surveillances (mice [8]; LEF mice): 2.2 ± 0.2 | Kt (trigger transmission coefficient) (mice [8]; population as a whole): 1.3 ± 0.45 | Number of compartment explorations (mice [8]; population as a whole): 4.6 ± 0.7 // | Number of surveillances (mice [8]; population as a whole): 2.0 ± 0.2 | TSIP P1 + N1 amplitude (rabbits): ++ (amplitude increase by 30 to 50%) | TSIP component N1 amplitude (rabbits): ++ (amplitude increase by 30 to 50%) | TSIP component P1 amplitude (rabbits): +++ (amplitude increase by more than 50%) | TSIP component P2 amplitude (rabbits): + (amplitude increase by less than 50%) | shortening of survival time vs control (mice [1]; 600 mg/kg): 35.0% | increase of survival time vs control (mice [1]; 900-2000 mg/kg): 78.0% | Duration of life (mice [1]; 600 mg/kg): 1.5 ± 0.6 min | Duration of life (mice [1]; 900 mg/kg): 4.0 ± 0.6 min | Duration of life (mice [1]; 2000 mg/kg): 4.2 ± 0.4 min | S/A (rats; 200 mg/kg): 12.1 ± 1.5 | S/T (rats; 200 mg/kg): 7.4 ± 0.7 | T/A (rats; 200 mg/kg): 1.6 ± 0.2 | S/A (rats; 400 mg/kg): 10.8 ± 1.3 | S/T (rats; 400 mg/kg): 7.2 ± 0.4 | T/A (rats; 400 mg/kg): 1.5 ± 0.1 | S/A (rats; 600 mg/kg): 10.2 ± 0.1 | S/T (rats; 600 mg/kg): 4.0 ± 0.1 | T/A (rats; 600 mg/kg): 2.6 ± 0.1 | decrease in the aggression threshold (TF) (mice [2]; 100 mg/kg): 11.3% | lowering of threshold of emotional reactivity (TFC) (mice [2]; 100 mg/kg): 23.5% | reduction of the pain threshold (TA) (mice [2]; 100 mg/kg): 43.6% | TA (threshold of attention) vs control (mice [2]; 100 mg/kg i.p.): −43.6 * % | TF (threshold of aggression) vs control (mice [2]; 100 mg/kg i.p.): −11.3 * % | TFC (threshold of first cheep) vs control (mice [2]; 100 mg/kg i.p.): −23.5 * % | lowering of threshold of emotional reactivity (TFC) (mice [2]; 200 mg/kg): 47.0% | reduction of the pain threshold (TA) (mice [2]; 200 mg/kg): 48.1% | TA (threshold of attention) vs control (mice [2]; 200 mg/kg i.p.): −48.1 * % | TFC (threshold of first cheep) vs control (mice [2]; 200 mg/kg i.p.): −47.0 * % | TF (threshold of aggression) vs control (mice [2]; 200 mg/kg i.p., 200 mg/kg): −15.7 * % | TF (threshold of aggression) vs control (mice [2]; 200 mg/kg i.p., listed as Pyracetam, 200 mg/kg): 25.7% | reduction of the pain threshold (TA) (mice [2]; 300 mg/k (so in the source)): 19.9% | increase of aggression threshold (TF) (mice [2]; 300 mg/kg (so in the source)): 7.4% | TA (threshold of attention) vs control (mice [2]; 400 mg/kg i.p.): −20.0 * % | TF (threshold of aggression) vs control (mice [2]; 400 mg/kg i.p.): −7.4% | TFC (threshold of first cheep) vs control (mice [2]; 400 mg/kg i.p.): +5.0%

Cc1ncc(CSSCc2cnc(C)c(O)c2CO)c(CO)c1O [Pyritinol]
TSIP P1 + N1 amplitude (rabbits): + (amplitude increase by less than 50%) | TSIP component N1 amplitude (rabbits): + (amplitude increase by less than 50%) | TSIP component P1 amplitude (rabbits): + (amplitude increase by less than 50%) | TSIP component P2 amplitude (rabbits): + (amplitude increase by less than 50%)

CN1C(=O)CN=C(c2ccccc2)c2cc(Cl)ccc21 [Seduxen]
S/A (rats; 2 mg/kg): 7.6 ± 0.2 | S/T (rats; 2 mg/kg): 3.6 ± 0.1 | T/A (rats; 2 mg/kg): 2.2 ± 1.4

NCC(CC(=O)O)c1ccccc1 (stereo not drawn) [phenibut]
S/A (rats; 50 mg/kg): 10.2 ± 0.3 | S/T (rats; 50 mg/kg): 7.6 ± 0.2 | T/A (rats; 50 mg/kg): 1.3 ± 0.6 | S/A (rats; 100 mg/kg): 8.0 ± 0.1 | S/T (rats; 100 mg/kg): 4.7 ± 0.1 | T/A (rats; 100 mg/kg): 1.7 ± 0.1
